Source: patent US8420660B2, “Antitubercular alkaloid” (priority 2011, dated 2013)

Assays:
[1] = tested on: Mycobacterium tuberculosis H37Rv (ATCC 27294); experiment: Primary screen (dose response), Microplate Alamar Blue Assay (MABA), IC90; format: cell-based; conditions: M. tuberculosis H37Rv, BACTEC 12B medium, Level-I assay
Description: Primary Screen (Dose Response): Determination of a 90% Inhibitory Concentration (IC90). The initial screen is conducted against Mycobacterium tuberculosis H37Rv (ATCC 27294) in BACTEC 12B medium using the Microplate Alamar Blue Assay (MABA). Compounds are tested in ten 2-fold dilutions, typically from 100 μg/mL to 0.19 μg/mL. The IC90 is defined as the concentration effecting a reduction in fluorescence of 90% relative to controls. This value is determined from the dose-response curve using a curve-fitting program. Any IC90 value of ≦10 μg/mL is considered “Active” for antitubercular activity.

VERO cell = format: cell-based; conditions: VERO cell CC50 (72 hours exposure) / M. tuberculosis H37Rv IC90

## 10,12-diheptanoyl-11-hydroxy-3-methyl-β-carboline [Compound I]
[1]
  IC90 (90% inhibitory concentration), antituberculosis activity: 0.948 µg/mL
VERO cell
  Selectivity Index (SI) = CC50 divided by IC90: > 105.48
